According to paper PMC10029296, “Glepaglutide, a novel glucagon-like peptide-2 agonist, has anti-inflammatory and mucosal regenerative effects in an experimental model of inflammatory bowel disease in rats” (BMC Gastroenterology, 2023):
No end group written: not given here.

Tests used:
male Wistar rats [1] = conditions: rat, in vivo
Description: In this study, a dose of INDO 7 mg/kg was used based on the results of an INDO-induced small intestinal inflammation model validation study conducted by Zealand Pharma.

male Wistar rats [2] = test: INDO-induced small intestinal inflammation model validation study (INDO dose finding); conditions: data not shown
hGLP-2R = biological target: T1, hGLP-2R (Homo sapiens, UniProt O95838, D470N); test: cAMP accumulation assay in HEK293 cells stably expressing hGLP-2R (AlphaScreen)
T1 sequence (O95838 1-553 D470N): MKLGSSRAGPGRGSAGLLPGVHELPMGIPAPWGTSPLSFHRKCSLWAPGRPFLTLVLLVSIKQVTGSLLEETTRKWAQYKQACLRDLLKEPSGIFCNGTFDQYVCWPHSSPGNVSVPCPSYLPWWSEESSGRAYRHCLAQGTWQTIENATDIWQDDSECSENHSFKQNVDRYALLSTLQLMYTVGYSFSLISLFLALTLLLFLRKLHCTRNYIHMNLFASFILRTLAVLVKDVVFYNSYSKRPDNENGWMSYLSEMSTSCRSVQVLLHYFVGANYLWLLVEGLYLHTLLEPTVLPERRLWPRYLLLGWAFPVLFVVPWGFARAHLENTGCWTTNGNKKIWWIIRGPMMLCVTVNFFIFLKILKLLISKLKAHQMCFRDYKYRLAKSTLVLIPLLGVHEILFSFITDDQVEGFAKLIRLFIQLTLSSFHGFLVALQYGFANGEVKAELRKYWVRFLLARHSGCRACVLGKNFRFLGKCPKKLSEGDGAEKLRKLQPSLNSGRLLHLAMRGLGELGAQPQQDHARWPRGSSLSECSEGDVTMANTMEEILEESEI
Description: For assaying, HEK293 cells stably expressing hGLP-2R were seeded at 30,000 cells per well in 96-well microtiter plates coated with 0.01% poly-L-lysine. […] The reaction was stopped by decanting off the compound/buffer and replacing it with 80 µl lysis/detection buffer consisting of deionized water supplemented with 0.1% w/v BSA (Sigma-Aldrich A9430), 5 mM HEPES, and 0.3% v/v Tween-20 (Sigma-Aldrich P7949).
Compound potency (EC50) and maximal effect (Emax) values were estimated by computer-aided curve fitting using a three-parameter logistic non-linear model.

naive Wistar rats = test: Intestinotrophic effect in naive rats; format: in vivo, rat; conditions: 80 and 400 nmol/kg SC once daily for 7 days, vs vehicle, 400 vs 80 nmol/kg p < 0.05
Description: Glepaglutide (80 nmol/kg or 400 nmol/kg, SC, once daily) or vehicle (SC, once daily) were administered for 14 days to naive Wistar rats to assess the intestinotrophic properties of the peptide, before initiating studies in the small intestinal inflammation model (Fig. 1A). Overall, 18 rats were included per arm, with 6 rats each sacrificed on day 0, day 7, and day 14.
Animals were anesthetized with carbon dioxide and then sacrificed by cervical dislocation. The small intestine (from the pylorus to the ileocecal junction) was dissected away from the abdomen and the surrounding mesenteric fat. Small intestinal length was measured after weighing the small intestine with a 1 g weight to obtain uniform tension. Thereafter, the small intestine was divided into two segments of equal length labeled as the jejunum and ileum. Segments were gently flushed with 0.9% saline, padded dry, and weighed. A 5 cm biopsy was collected 10 cm distal from the start of the jejunal segment, and another 5 cm biopsy was collected 10 cm distal from the start of the ileal segment. […]
Data are presented as mean ± standard error of the mean, unless otherwise stated. The intestinal growth-promoting effect of glepaglutide in naive rats was determined using a two-way analysis of variance (ANOVA, dose and time), and significant findings were further analyzed with the Bonferroni post hoc test. […]

[3] = tested on: Wistar rats with INDO-induced small intestinal inflammation; test: INDO-induced small intestinal inflammation model, co- and post-treatment; format: in vivo, rat; conditions: 400 nmol/kg SC twice daily
Description: Two treatment regimens were studied: glepaglutide (400 nmol/kg, SC, twice daily) was administered in a co-treatment regimen (Fig. 1B – administered at inflammation onset and throughout), and a post-treatment regimen (Fig. 1C – administered after inflammation onset and throughout).
Two groups of controls, INDO controls (administered with INDO and treated with vehicle) and controls (administered with saline solution and treated with vehicle), were included in the studies (Fig. 1B and C). Groups of rats (n = 7–15) were sacrificed during the active inflammation phase (2–3 days after inflammation onset), on day 3 for the co-treatment regimen (Fig. 1B) and on day 4 for the post-treatment regimen (Fig. 1C), to determine small intestinal length, jejunal and ileal mass, and α-1-acid glycoprotein (α-1-AGP) and myeloperoxidase (MPO) concentrations in the jejunum and ileum. Equivalent groups of rats were sacrificed during the body weight recovery phase (14–15 days after inflammation onset), on day 14 for the co-treatment regimen (Fig. 1B), and on day 16 for the post-treatment regimen (Fig. 1C), to determine jejunal and ileal mass. Body weight and survival were recorded daily.
Animals were anesthetized with carbon dioxide and then sacrificed by cervical dislocation. The small intestine (from the pylorus to the ileocecal junction) was dissected away from the abdomen and the surrounding mesenteric fat. Small intestinal length was measured after weighing the small intestine with a 1 g weight to obtain uniform tension. Thereafter, the small intestine was divided into two segments of equal length labeled as the jejunum and ileum. Segments were gently flushed with 0.9% saline, padded dry, and weighed. A 5 cm biopsy was collected 10 cm distal from the start of the jejunal segment, and another 5 cm biopsy was collected 10 cm distal from the start of the ileal segment. The biopsies were immediately frozen in liquid nitrogen and stored at -80 °C for later analysis of concentrations of α-1-AGP and MPO using commercially available enzyme-linked immunosorbent assay kits (Life Diagnostics [2510–2] and Hycult Biotech [HK 210], respectively). The preparation method was validated in house.
Data are presented as mean ± standard error of the mean, unless otherwise stated. The intestinal growth-promoting effect of glepaglutide in naive rats was determined using a two-way analysis of variance (ANOVA, dose and time), and significant findings were further analyzed with the Bonferroni post hoc test. In the INDO model, a t-test was used to compare INDO control-treated rats with vehicle control-treated rats, and INDO control-treated rats with glepaglutide-treated rats. A p value of ≤ 0.05 was considered statistically significant. Grubbs’ test was used to test for outliers in the section, and outliers were not included in the analyses. Differences in survival between different groups were compared by the Cox–Mantel log-rank test.

[4] = tested on: patients with moderate to severe CD; conditions: 8 weeks of treatment, failed to reach statistical significance; cited from earlier work
Text: Use of GLP-2 agonists for the treatment of IBD is not a novel concept. The ability of teduglutide to induce remission or to reduce the Crohn’s disease activity index (CDAI) score by at least 100 points after 8 weeks of treatment was examined in patients with moderate to severe CD [37]. […] We speculate that the study was underpowered and that the assessment of mucosal healing, rather than the CDAI, would have been a better endpoint to assess the effect of ...

[5] = co-treatment, body weight recovery phase (day 14), vs INDO controls
[6] = post-treatment, active inflammation phase (day 4), ELISA, vs INDO controls, p < 0.01
[7] = post-treatment, body weight recovery phase (day 16), vs INDO controls

COc1ccc2c(c1)c(CC(=O)O)c(C)n2C(=O)c1ccc(Cl)cc1 [INDO, indomethacin]
Induction of inflammation, INDO 3 mg/kg (male Wistar rats [1]): insufficient for inducing inflammation | Induction of macroscopic features of inflammation, INDO 7 mg/kg (male Wistar rats [1]): sufficient and appropriate | Mortality, INDO 15 mg/kg (male Wistar rats [2]): exaggerated mortality

HGEGTFSSELATILDALAARDFIAWLIATKITDKKKKKK-NH2 (C-terminus assumed) [Glepaglutide]
Emax ± SEM, agonism of hGLP-2R (cAMP accumulation) (hGLP-2R; response normalized to a saturating concentration of hGLP-2 and baseline cAMP of unstimulated receptor, mean ± SEM, n = 5): 102 ± 3.7 | Small intestinal mass, day 7 (naive Wistar rats): dose-dependently increased | Ileal MPO concentration, co-treatment ([3]; co-treatment, active inflammation phase (day 3), ELISA, vs INDO controls, p < 0.001): significantly decreased | Ileal α-1-AGP concentration, co-treatment ([3]; co-treatment, active inflammation phase (day 3), ELISA, vs INDO controls, p < 0.05): significantly decreased | Small intestinal shortening (small intestinal length), co-treatment ([3]; co-treatment, active inflammation phase (day 3), vs INDO controls, p < 0.001): reversed | Ileal mass, co-treatment, active inflammation phase ([3]; co-treatment, active inflammation phase, vs INDO controls, p < 0.05): significantly increased | Ileal mass, co-treatment, body weight recovery phase [3, 5]: significantly increased | Jejunal mass, co-treatment, body weight recovery phase [3, 5]: significantly increased | Acute body weight loss, co-treatment ([3]; co-treatment, vs INDO controls, p < 0.001, data not shown): significantly decreased | Ileal α-1-AGP concentration, post-treatment [3, 6]: significantly decreased | Jejunal α-1-AGP concentration, post-treatment [3, 6]: significantly decreased | Jejunal MPO concentration, post-treatment ([3]; post-treatment, active inflammation phase (day 4), ELISA, vs INDO controls, p < 0.05): significantly decreased | Small intestinal shortening (small intestinal length), post-treatment ([3]; post-treatment, active inflammation phase (day 4), vs INDO controls, p = 0.05): significantly reversed | Ileal mass, post-treatment, body weight recovery phase [3, 7]: significantly increased | Jejunal mass, post-treatment, body weight recovery phase [3, 7]: significantly increased | Acute body weight loss, post-treatment ([3]; post-treatment, data not shown): no effect

[Gly^2]GLP-2 [teduglutide]
Effect on CDAI score [4]: positive, dose-dependent effect

HGEGTFSSELATILDALAARDFIAWLIATKITDKKKKKK-NH2 [Glepaglutide]
EC50 (hGLP-2R; SEM): 0.0933 nM | Survival ([3]; co- and post-treatment regimens, Cox–Mantel log-rank test): no effect
